# Starred links: 1 amine or outer side, 2 acyl side, 3 side chain; linkers in the order of their positions; H or OH if unused. Positions of bridges follow the written chain, without caps; N, C: chain ends. Non-standard residues stand in square brackets, D forms with d. Residues, ends and D or L forms follow the SMILES beside them. *: point of attachment. hTyr(3S-OH,4S-OH,3'-OSO3H) = N[C@H](C(=O)O)[C@H](O)[C@@H](O)c1ccc(O)c(OS(=O)(=O)O)c1; Orn(4R-OH,5R-OH) = O=C([C@H](C[C@@H](O)[C@@H](O)N[*:3])N[*:1])[*:2]; Pro(3S-OH,4S-Me) = C[C@H]1CN[C@H](C(=O)O)[C@H]1O; X1 = CCCCCOc1ccc(-c2cc(-c3ccc(C(=O)*)cc3)no2)cc1; Gln(3R-OH) = NC(=O)C[C@@H](O)[C@H](N)C(=O)O; Hyp = O=C(O)[C@@H]1C[C@@H](O)CN1
# System: Human Hepatic Sinusoidal Endothelial Cells (HHSEC)
# Assay: Oxygen and glucose deprivation followed by replenishment, cell survival (calcein AM), HHSEC
# Type: cell-based
# Experimental: Anidulafungin and micafungin were tested on Human Renal Glomerular Endothelial Cells (HRGEC, Innoprot P10665), on Human Renal Proximal Tubular Epithelial Cells (HRPTEpiC, Innoprot P10662), on Human Astrocytes (HA, caltag SC-1800), on Human Cardiac Microvascular Endothelial Cells (HCMEC, Caltag SC-6000), on Human Hepatic Sinusoidal Endothelial Cells (HHSEC, Caltag SC-5000), on Rat Primary Kidney Glomerular Endothelial cells (Cellbiologics, RN-6014G) and on Bovine Brain Microvascular Endothelial Cells (BBMEC, Caltag SC-B100).
# In a first phase, these isolated, purified and cryopreserved cells are thawed and multiplied according to the supplier's recommendations in T75 or T175 flasks pre-coated with 2 μg of fibronectin/[…] (CORNING) for HRGEC, HCMEC, HHSEC and BBMEC, or 2 μg poly-L-lysin/cm^2 (Caltag SC-0403) for HRPTEpiC and HA, or 15 mL/flask 175 cm^2 gelatin-based solution (Cellbiologics) in the presence of endothelial cell supplemented growth medium ECM (P60104, INNOPROT, Caltag, SC-1001) for HRGEC, HCMEC, HHSEC, RPKGEC or BBMEC, or astrocyte cell supplemented growth medium AM (Caltag SC-1801) for HA or epithelial cell supplemented growth medium EpiCM (P60106, INNOPROT) for HRPTEpiC, at 37° C. under 5% CO2 and saturated humidity until their confluency. They are then harvested by trypsinization according to the method described by the supplier for exactly 5 minutes and then reseeded in new flasks a maximum of three times.
# To carry out the oxygen and glucose deprivation test followed by their replenishment, the cells will be seeded in 96-well black plates with transparent flat bottom (GREINER). Once a sufficient number of cells has been obtained to allow seeding of 2000 to 15000 cells per well of 96-well plates depending on the cell type, the cells are seeded in these 96-well plates previously coated with an extracellular matrix as listed above for the flasks. The cells are cultured for 5 to 8 days according to the cell type, in the presence of the same growth medium as in the flask as described above except for HRGEC and HRPTEpiC for which DMEM (DUTSCHER) with 1 g/L of supplemented glucose is used, at 37° C. under 5% CO2 and saturated humidity to obtain confluency.
# On the first day of oxygen and glucose deprivation, (5th, 6th, 7th or 8th day of culture), the culture conditions are drastically changed. The medium of all plates is removed and replaced by DMEM (DUTSCHER) medium without glucose and supplemented only with 1% penicillin-streptomycin (DUTSCHER). Anidulafungin or micafungin dissolved in dimethyl sulfoxide (DMSO) is then added to each well at the desired concentration, resulting in a maximum of 1% DMSO, and the plates are placed under hypoxia at <1% 02 and 5% CO2 at 37° C. for 24 hours of culture. Each compound was tested in a concentration range.
# After 24 hours, the growth medium is changed and replaced by a richer medium, DMEM (DUTSCHER) at 1 g/L glucose and 2% FBS (INNOPROT) and 1% penicillin-streptomycin (DUTSCHER). These media will have been pre-equilibrated at 37° C. in advance. The cells are then returned to culture at 37° C. under 20% 02 and 5% CO2 for 22h.
# After 22 hours of reoxygenation, the potential protective effect of anidulafungin or micafungin is measured by a cell viability test using calcein AM (CORNING), which is a dye substrate. The calcein AM can easily cross the cell membrane of the viable cells. The AM ester groups mask the part of the molecule that chelates calcium. Once inside the cells, the (non-fluorescent) calcein AM is hydrolyzed to (fluorescent) calcein by endogenous esterases. The resulting calcein molecule binds to calcium inside the cell and remains trapped inside the cell. These molecules emit strong green fluorescence when subjected to […] of a particular wavelength (495 nm). Since dead cells lack esterase activity, only living cells are labelled.
# This cell viability test is performed in two steps. […]
# [1] = [Micafungin] log μM 0 (first line printed 0, r12)
# [2] = [Micafungin] log μM 0 (second line printed 0, r14)
smiles,measurement,setting,value
"CCCCCOc1ccc(-c2cc(-c3ccc(C(=O)N[C@H]4C[C@@H](O)[C@@H](O)NC(=O)[C@@H]5[C@@H](O)[C@@H](C)CN5C(=O)[C@H]([C@H](O)CC(N)=O)NC(=O)[C@H]([C@H](O)[C@@H](O)c5ccc(O)c(OS(=O)(=O)O)c5)NC(=O)[C@@H]5C[C@@H](O)CN5C(=O)[C@H]([C@@H](C)O)NC4=O)cc3)no2)cc1 [Micafungin, {5-[(1S,2S)-2-[(3S,6S,9S,11R,15S,18S,20R,21R,24S,25S,26S)-3-[(1R)-2-carbamoyl-1-hydroxyethyl]-11,20,21,25-tetrahydroxy-15-[(1R)-1-hydroxyethyl]-26-methyl-2,5,8,14,17,23-hexaoxo-18-[(4-{5-[4-(pentyloxy)phenyl]-1,2-oxazol-3-yl}benzene)amido]-1,4,7,13,16,22-hexaazatricyclo[22.3.0.0]heptacosan-6-yl]-1,2-dihydroxyethyl]-2-hydroxyphenyl}oxidanesulfonic acid] (X1-[Orn(4R-OH,5R-OH)]T[Hyp][hTyr(3S-OH,4S-OH,3'-OSO3H)][Gln(3R-OH)][Pro(3S-OH,4S-Me)]; lactam 1-C)",Globalfluo assay 1,[1],2600496 arbitrary units
same,Globalfluo assay 2,[1],2592730 arbitrary units
same,Globalfluo assay 3,[1],2666315 arbitrary units
same,Mean globalfluo,[1],2619847 arbitrary units
same,Survival rate (%),[1],0%
same,Globalfluo assay 1,[2],3063920 arbitrary units
same,Globalfluo assay 2,[2],2647280 arbitrary units
same,Globalfluo assay 3,[2],2608353 arbitrary units
same,Mean globalfluo,[2],2773184 arbitrary units
same,Survival rate (%),[2],1%
same,Globalfluo assay 1,[Micafungin] log μM 0.4771213,2619032 arbitrary units
same,Globalfluo assay 2,[Micafungin] log μM 0.4771213,2696453 arbitrary units
same,Globalfluo assay 3,[Micafungin] log μM 0.4771213,2858592 arbitrary units
same,Mean globalfluo,[Micafungin] log μM 0.4771213,2724692 arbitrary units
same,Survival rate (%),[Micafungin] log μM 0.4771213,1%
same,Globalfluo assay 1,[Micafungin] log μM 0.7781513,2942319 arbitrary units
same,Globalfluo assay 2,[Micafungin] log μM 0.7781513,3052699 arbitrary units
same,Globalfluo assay 3,[Micafungin] log μM 0.7781513,2975927 arbitrary units
same,Mean globalfluo,[Micafungin] log μM 0.7781513,2990315 arbitrary units
same,Survival rate (%),[Micafungin] log μM 0.7781513,2%
same,Globalfluo assay 1,[Micafungin] log μM 0.90309,2800146 arbitrary units
same,Globalfluo assay 2,[Micafungin] log μM 0.90309,3162662 arbitrary units
same,Globalfluo assay 3,[Micafungin] log μM 0.90309,3203256 arbitrary units
same,Mean globalfluo,[Micafungin] log μM 0.90309,3055355 arbitrary units
same,Survival rate (%),[Micafungin] log μM 0.90309,3%
same,Globalfluo assay 1,[Micafungin] log μM 1,3210890 arbitrary units
same,Globalfluo assay 2,[Micafungin] log μM 1,3369543 arbitrary units
same,Globalfluo assay 3,[Micafungin] log μM 1,2819931 arbitrary units
same,Mean globalfluo,[Micafungin] log μM 1,3133455 arbitrary units
same,Survival rate (%),[Micafungin] log μM 1,3%
same,Globalfluo assay 1,[Micafungin] log μM 1.079181,3383806 arbitrary units
same,Globalfluo assay 2,[Micafungin] log μM 1.079181,3457745 arbitrary units
same,Globalfluo assay 3,[Micafungin] log μM 1.079181,3493598 arbitrary units
same,Mean globalfluo,[Micafungin] log μM 1.079181,3445050 arbitrary units
same,Survival rate (%),[Micafungin] log μM 1.079181,5%
same,Globalfluo assay 1,[Micafungin] log μM 1.176091,3454603 arbitrary units
same,Globalfluo assay 2,[Micafungin] log μM 1.176091,3676802 arbitrary units
same,Globalfluo assay 3,[Micafungin] log μM 1.176091,3618017 arbitrary units
same,Mean globalfluo,[Micafungin] log μM 1.176091,3583141 arbitrary units
same,Survival rate (%),[Micafungin] log μM 1.176091,6%
same,Globalfluo assay 1,[Micafungin] log μM 1.30103,3383992 arbitrary units
same,Globalfluo assay 2,[Micafungin] log μM 1.30103,2974781 arbitrary units
same,Globalfluo assay 3,[Micafungin] log μM 1.30103,3188414 arbitrary units
same,Mean globalfluo,[Micafungin] log μM 1.30103,3182396 arbitrary units
same,Survival rate (%),[Micafungin] log μM 1.30103,3%
same,Globalfluo assay 1,[Micafungin] log μM −2,2651037 arbitrary units
same,Globalfluo assay 2,[Micafungin] log μM −2,2880244 arbitrary units
same,Globalfluo assay 3,[Micafungin] log μM −2,2908835 arbitrary units
same,Mean globalfluo,[Micafungin] log μM −2,2813372 arbitrary units
same,Survival rate (%),[Micafungin] log μM −2,1%

# From patent US11458189B2, “Cytoprotective drugs” (BALMES TRANSPLANTATION, priority 2017, dated 2022)
